From ChEMBL document CHEMBL1201862, “PubChem BioAssay data set” (2004) come the findings set out here.

Data set [1] concerns the target T1, Heat shock factor protein 1 (Mus musculus, UniProt P38532).
T1 sequence (P38532 whole entry): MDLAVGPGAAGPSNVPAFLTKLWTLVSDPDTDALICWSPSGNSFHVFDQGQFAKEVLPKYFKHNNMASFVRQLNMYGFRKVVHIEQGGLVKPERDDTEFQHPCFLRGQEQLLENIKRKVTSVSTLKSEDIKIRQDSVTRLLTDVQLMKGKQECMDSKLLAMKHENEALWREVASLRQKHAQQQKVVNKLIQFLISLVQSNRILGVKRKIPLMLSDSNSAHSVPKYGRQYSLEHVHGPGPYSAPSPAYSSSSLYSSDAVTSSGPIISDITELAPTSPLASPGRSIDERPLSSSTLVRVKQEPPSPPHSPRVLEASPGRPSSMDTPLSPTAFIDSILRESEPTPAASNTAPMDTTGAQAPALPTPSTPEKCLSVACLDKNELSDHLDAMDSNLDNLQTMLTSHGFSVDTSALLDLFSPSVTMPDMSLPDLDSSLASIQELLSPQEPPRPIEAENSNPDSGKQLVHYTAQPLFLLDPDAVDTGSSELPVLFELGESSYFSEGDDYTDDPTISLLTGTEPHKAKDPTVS
Put plainly: decrease of HSF1-responsive luciferase luminescence – cell-based, NIH3T3, dose retest, confirmation (AID 2382).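 Note: NIH3T3 fibroblasts with HSF1-driven luciferase reporter stressed by proteasome inhibitor MG132; luminescence from HSF1-driven luciferase expression after 8 hours of MG132 stress.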 In kind it is functional.

In data set [2] the target is T2, RNA-binding protein pos-1 (Caenorhabditis elegans, UniProt G5EF15).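 Note: purified POS-1 fused to maltose binding protein made in E. coli; potency of compounds blocking POS-1 binding to fluorescent RNA.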
T2 sequence (G5EF15 whole entry): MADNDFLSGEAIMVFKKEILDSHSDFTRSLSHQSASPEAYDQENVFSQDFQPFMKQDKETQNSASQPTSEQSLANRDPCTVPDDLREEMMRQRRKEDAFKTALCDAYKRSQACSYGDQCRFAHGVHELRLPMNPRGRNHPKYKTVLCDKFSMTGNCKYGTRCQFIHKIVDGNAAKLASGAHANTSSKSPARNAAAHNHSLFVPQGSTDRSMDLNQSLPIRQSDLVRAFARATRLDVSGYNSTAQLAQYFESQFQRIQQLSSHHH
Put plainly: disruptors of C. elegans POS-1 RNA interaction – biochemical, fluorescence polarization, dose response (AID 1964). (Polarisation of emitted light reports the rotation of a fluorescent probe.)

Data set [3] concerns the target T3, Zinc finger protein mex-5 (Caenorhabditis elegans, UniProt Q9XUB2).
T3 sequence (Q9XUB2 whole entry): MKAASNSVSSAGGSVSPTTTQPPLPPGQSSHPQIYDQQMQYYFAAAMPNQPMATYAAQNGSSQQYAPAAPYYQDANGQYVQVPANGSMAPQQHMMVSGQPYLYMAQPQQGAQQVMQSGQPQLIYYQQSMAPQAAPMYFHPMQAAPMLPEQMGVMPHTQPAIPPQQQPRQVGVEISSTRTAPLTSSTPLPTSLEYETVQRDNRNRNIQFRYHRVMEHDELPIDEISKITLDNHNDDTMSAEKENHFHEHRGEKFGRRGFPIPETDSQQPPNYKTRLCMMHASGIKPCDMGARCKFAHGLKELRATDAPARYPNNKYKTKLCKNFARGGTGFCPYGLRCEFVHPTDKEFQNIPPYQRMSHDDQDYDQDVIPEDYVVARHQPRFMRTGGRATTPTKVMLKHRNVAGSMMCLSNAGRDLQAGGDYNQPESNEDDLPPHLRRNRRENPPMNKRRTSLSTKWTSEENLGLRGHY
Put plainly: potency of MEX-5 RNA-binding blockers – biochemical, C. elegans, fluorescence polarization, dose response (AID 1960).

The next data set addresses Cytochrome P450 2C9 (Homo sapiens, UniProt P11712).
The target of data set [4] is T4, Cytochrome P450 3A4 (Homo sapiens, UniProt P08684).
T4 sequence (P08684 whole entry): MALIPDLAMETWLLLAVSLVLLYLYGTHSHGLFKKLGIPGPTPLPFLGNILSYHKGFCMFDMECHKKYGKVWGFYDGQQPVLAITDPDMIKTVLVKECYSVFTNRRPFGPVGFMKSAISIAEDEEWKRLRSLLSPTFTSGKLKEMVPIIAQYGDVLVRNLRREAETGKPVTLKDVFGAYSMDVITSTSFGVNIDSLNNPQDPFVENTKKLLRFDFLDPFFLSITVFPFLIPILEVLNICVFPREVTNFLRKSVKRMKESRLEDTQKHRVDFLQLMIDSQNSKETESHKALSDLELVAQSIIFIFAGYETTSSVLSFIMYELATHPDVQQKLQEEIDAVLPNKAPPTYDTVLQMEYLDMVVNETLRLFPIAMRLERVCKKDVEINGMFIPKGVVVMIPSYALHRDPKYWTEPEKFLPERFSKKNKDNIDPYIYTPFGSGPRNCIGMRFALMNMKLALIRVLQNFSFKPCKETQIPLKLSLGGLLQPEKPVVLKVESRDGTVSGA
Another data set has as its target T5, Cytochrome P450 1A2 (Homo sapiens, UniProt P05177).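 Note: PubChem cytochrome P450 panel assay, CYP1A2 panel member.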
T5 sequence (P05177 whole entry): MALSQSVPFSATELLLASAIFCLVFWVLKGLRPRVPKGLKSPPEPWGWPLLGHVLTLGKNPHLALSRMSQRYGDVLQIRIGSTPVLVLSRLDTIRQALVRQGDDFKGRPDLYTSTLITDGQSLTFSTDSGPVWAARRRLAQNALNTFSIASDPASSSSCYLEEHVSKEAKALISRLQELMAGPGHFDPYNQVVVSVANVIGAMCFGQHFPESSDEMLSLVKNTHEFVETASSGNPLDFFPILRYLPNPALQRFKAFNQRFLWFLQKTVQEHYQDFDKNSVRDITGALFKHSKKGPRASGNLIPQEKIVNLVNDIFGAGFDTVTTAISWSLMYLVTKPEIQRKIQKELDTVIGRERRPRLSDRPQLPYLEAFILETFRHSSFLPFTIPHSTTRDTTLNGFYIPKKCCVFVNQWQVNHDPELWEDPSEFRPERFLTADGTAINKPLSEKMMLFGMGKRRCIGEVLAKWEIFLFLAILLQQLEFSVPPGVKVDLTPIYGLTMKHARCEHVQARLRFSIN

The nature of data set [5]: THP-1 cell cytotoxicity, dose response, cytotoxicity control for non-replicating M. tuberculosis project (AID 489025). Type of data set: functional.
The next data set has as its system INS1. Put plainly: INS-1E survival protection against cytokine death – cell-based, luminescence, retest, dose response (AID 449756).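 Note: cell death triggered by IL-1 beta plus TNF-alpha plus IFN-gamma mixture; protective hits raise ATP signal compared with cytokine alone wells.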 Type of data set: functional. Particulars: Rattus norvegicus.
A short description of the next data set: cells. In kind it is functional.
For data set [6], the target named is T4, Cytochrome P450 3A4. The conditions noted are these: Potency.
Data set [7] concerns the target T6, High affinity choline transporter 1 (Homo sapiens, UniProt Q9GZV3).
T6 sequence (Q9GZV3 whole entry): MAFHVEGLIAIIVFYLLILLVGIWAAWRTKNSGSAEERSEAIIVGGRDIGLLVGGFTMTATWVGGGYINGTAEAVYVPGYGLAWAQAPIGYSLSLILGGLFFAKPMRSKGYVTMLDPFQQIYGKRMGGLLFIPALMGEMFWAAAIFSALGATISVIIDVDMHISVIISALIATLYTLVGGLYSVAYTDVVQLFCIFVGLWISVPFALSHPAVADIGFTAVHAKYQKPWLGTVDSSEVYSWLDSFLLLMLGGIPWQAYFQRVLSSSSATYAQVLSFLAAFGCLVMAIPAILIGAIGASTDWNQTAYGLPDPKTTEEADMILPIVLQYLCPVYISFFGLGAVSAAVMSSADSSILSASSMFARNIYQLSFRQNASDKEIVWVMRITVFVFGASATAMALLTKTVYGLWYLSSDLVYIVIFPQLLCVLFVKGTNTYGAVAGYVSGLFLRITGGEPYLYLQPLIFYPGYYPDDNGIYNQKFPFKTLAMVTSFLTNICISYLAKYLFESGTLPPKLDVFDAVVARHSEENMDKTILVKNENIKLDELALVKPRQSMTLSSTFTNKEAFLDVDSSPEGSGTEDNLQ
Put plainly: human choline transporter blockers, potency – cell-based, 5-point CRC, membrane potential dye, dose response (AID 504840). Type of data set: functional.

The target in another data set is Cytochrome P450 2D6 (Homo sapiens, UniProt P10635).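 Note: CYP2D6 member of a cytochrome P450 panel assay.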
Chain of Cytochrome P450 2D6 (P10635 whole entry): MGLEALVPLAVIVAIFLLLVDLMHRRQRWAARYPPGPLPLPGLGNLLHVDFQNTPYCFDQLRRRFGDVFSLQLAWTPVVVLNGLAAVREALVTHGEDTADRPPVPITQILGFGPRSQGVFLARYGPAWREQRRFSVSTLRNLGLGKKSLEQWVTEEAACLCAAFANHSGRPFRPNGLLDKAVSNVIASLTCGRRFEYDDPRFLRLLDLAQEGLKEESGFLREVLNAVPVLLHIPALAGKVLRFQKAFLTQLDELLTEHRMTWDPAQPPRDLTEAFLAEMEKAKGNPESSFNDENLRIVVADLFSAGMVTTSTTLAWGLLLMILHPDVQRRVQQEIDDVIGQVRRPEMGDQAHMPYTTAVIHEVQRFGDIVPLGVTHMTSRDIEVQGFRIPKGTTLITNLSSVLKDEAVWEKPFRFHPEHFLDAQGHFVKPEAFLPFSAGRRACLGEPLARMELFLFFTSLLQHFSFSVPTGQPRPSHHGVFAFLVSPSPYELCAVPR
A further data set deals with Cytochrome P450 2C19 (Homo sapiens, UniProt P33261). Put plainly: Cytochrome panel assay with activity outcomes. Panel member name: p450-cyp2c19 Compounds with AC50 equal or less than 10 uM are considered active. In kind it is functional.
Chain of Cytochrome P450 2C19 (P33261 whole entry): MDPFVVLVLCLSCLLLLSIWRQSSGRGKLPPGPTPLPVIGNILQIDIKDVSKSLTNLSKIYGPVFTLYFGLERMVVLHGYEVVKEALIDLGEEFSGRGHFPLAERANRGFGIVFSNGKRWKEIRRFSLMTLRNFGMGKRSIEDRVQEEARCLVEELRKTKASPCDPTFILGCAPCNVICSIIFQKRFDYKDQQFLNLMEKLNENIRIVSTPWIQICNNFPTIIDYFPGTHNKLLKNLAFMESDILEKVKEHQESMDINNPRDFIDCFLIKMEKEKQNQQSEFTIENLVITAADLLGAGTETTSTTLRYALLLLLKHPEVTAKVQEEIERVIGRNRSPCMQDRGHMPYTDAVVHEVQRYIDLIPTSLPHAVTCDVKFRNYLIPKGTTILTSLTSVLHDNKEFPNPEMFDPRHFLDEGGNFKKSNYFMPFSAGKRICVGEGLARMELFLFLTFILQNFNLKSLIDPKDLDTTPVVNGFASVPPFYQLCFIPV
The target in a further data set is Nonstructural protein 1 (Influenza A virus, UniProt Q194T2). In kind it is functional, Influenza A virus (A/California/07/2009(H1N1)).
Chain of Nonstructural protein 1 (Q194T2 whole entry): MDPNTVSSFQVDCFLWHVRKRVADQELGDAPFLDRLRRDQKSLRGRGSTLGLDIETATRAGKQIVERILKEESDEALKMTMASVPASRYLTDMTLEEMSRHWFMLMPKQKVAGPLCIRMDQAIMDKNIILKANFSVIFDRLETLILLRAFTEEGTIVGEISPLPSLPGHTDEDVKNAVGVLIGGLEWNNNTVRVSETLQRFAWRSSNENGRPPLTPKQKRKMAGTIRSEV
The target in data set [8] is 5-hydroxytryptamine receptor 5A (Homo sapiens, UniProt P47898). The data set can be described thus: Counterscreen for agonists of OPRM1-OPRD1 heterodimerization: luminescence-based cell-based high throughput dose response assay to identify agonists of 5-hydroxytryptamine (serotonin) 5A receptor (HTR5A). [Related pubchem assays (depositor defined):AID504326, AID504355, AID504692, AID504904, AID504905]. Type of data set: functional. Background: The purpose of a counterscreen is to sort out artefacts and off-target activity.
Chain of 5-hydroxytryptamine receptor 5A (P47898 whole entry): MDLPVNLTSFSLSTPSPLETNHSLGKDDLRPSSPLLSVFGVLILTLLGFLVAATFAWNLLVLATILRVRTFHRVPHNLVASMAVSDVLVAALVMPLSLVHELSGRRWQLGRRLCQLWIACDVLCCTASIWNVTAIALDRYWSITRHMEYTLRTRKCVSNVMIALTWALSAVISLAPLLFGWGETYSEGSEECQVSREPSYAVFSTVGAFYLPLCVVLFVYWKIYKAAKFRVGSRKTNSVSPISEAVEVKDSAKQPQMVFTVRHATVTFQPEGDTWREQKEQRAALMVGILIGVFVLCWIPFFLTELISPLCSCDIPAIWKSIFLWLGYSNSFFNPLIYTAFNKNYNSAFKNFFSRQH

Data set [9] has as its target Delta-type opioid receptor (Homo sapiens, UniProt P41143). The data set can be described thus: Counterscreen for agonists of heterodimerization of the mu 1 (OPRM1) and delta 1 (OPRD1) opioid receptors: Luminescence-based cell-based high throughput dose response assay to identify agonists of OPRD1 homodimerization. [Related pubchem assays (depositor defined):AID504326, AID504355, AID504692, AID504904, AID504905]. In kind it is functional.

The next data set concerns the target Mu-type opioid receptor (Homo sapiens, UniProt P35372). Put plainly: Counterscreen for agonists of heterodimerization of the mu 1 (OPRM1) and delta 1 (OPRD1) opioid receptors: Luminescence-based cell-based high throughput dose response assay to identify agonists of OPRM1 homodimerization. In kind it is functional.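 Note: U2OS cells expressing OPRM1 and beta-arrestin as split beta-galactosidase partners.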

One may read the EC50 as the concentration giving half of the maximal effect. The term AC50 denotes the concentration at which the activity in the assay is half-maximal. For orientation: CC50 means the concentration at which the toxic effect on the cells reaches its halfway point. As usually defined, the IC50 is the concentration needed to halve the response being measured.

Each structure is given as a SMILES string. Active and inactive are the calls of the source. Bounds are passed on as bounds.

Chain of Cytochrome P450 2C9 (P11712 whole entry): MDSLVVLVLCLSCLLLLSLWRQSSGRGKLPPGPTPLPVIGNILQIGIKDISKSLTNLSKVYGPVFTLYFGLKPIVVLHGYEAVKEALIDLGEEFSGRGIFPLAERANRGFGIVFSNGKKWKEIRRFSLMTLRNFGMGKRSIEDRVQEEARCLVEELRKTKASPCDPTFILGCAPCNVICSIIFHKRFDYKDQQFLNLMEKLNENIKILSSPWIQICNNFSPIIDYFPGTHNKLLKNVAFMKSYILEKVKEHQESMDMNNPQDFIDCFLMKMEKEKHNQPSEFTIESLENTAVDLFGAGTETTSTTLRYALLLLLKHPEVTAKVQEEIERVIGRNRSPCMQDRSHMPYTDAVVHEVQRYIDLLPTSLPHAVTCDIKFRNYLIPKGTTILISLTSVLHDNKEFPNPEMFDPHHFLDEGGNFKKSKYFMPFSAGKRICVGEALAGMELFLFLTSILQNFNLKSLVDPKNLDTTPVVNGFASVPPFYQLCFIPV
Chain of Delta-type opioid receptor (P41143 whole entry): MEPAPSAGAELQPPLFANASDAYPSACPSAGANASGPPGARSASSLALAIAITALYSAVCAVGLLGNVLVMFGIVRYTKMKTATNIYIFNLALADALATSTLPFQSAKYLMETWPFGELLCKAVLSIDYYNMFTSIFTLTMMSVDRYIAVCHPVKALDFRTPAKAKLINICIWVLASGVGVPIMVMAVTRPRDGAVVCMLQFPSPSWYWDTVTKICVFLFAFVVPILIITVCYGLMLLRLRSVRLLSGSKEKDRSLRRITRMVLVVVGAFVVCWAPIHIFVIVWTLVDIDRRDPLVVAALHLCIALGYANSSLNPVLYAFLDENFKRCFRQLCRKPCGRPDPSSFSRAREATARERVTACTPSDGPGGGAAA
Chain of Mu-type opioid receptor (P35372 whole entry): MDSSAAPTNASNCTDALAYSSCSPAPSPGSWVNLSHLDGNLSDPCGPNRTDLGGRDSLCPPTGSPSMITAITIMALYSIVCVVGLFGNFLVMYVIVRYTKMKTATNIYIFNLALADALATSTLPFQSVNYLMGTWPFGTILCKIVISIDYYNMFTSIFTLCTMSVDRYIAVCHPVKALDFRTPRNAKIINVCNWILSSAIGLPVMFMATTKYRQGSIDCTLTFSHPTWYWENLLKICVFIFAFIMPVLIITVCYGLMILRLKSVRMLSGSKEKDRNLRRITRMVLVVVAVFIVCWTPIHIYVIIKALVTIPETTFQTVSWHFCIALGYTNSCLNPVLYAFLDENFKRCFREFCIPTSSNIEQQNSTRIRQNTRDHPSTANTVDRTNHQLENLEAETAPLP

In the case of `CC1(C)CC(=O)C2=C(C1)OC(N)=C(C#N)C2c1ccccc1` (stereo unspecified), the EC50 in [1] is > 195 µM (not active); in data set [2] it was > 300 µM (not active); in data set [3], > 300 µM (not active).

`COc1c2ccoc2nc2c(OC)c(OC[C@H](O)C(C)(C)O)ccc12`: the AC50 result at Cytochrome P450 2C9 is “inconclusive”; at Cytochrome P450 3A4 [4] it was 15.8 µM (inconclusive); at Cytochrome P450 1A2, 10 µM (inconclusive).

Consider `Cc1[nH]c2ccccc2c1-c1cc(-c2cc(-c3c(C)[nH]c4ccccc34)on2)no1`, for which the AC50 entry at Cytochrome P450 2C9 is “inconclusive”.

Turning to `CCOc1cc(-c2sc(Nc3cc(C)ccc3OC)n[n+]2-c2ccccc2)ccc1OC`, the CC50 in data set [5] was > 40 µM (active). For the same compound, in the data set on INS1, the concentration at half-maximal activity (AC50) is 12.9 µM (active). Besides, the IC50 in the data set “cells” is > 50 µM (active).

As for `Clc1ccc(C2[C@H]3CN(Cc4ccc(-c5ccccc5)cc4)[C@H](c4ccccc4)C34CC2(c2cccnc2)C4)cn1` (stereo partly specified), the AC50 on Cytochrome P450 3A4 [6] was 15.8 µM (inconclusive).

For the compound `Cc1cc(Cl)ccc1OC(C)C(=O)Nc1ccc(S(=O)(=O)Nc2cnc3ccccc3n2)cc1` (stereo unspecified), the IC50 in [7] was 13.8 µM (active). For the same compound, the AC50 on Cytochrome P450 2D6 is 28.2 µM (inconclusive); at Cytochrome P450 2C19 (read-out: AC50) it was 14.1 µM (inconclusive).

Regarding `O=C(NC(=S)NNC(=O)c1ccccc1O)c1cccc([N+](=O)[O-])c1`, the IC50 on Nonstructural protein 1 was 15.3 µM (active).

Take `CCCn1c(-c2ccc(F)cc2)nc2c(N3CCN(C)CC3)nc(C)nc21`: at Cytochrome P450 3A4 [6], the AC50 is 12.6 µM (inconclusive).

Regarding `CCOC(=O)c1c(C)c(C(=O)N2CCc3ccccc3C2)c(C)n1CC`, the 50% inhibitory concentration (IC50) in data set [7] was 13.8 µM (active).

As to `COc1ccc(CCCc2nc3ccccc3[nH]2)cc1`, the concentration giving a half-maximal response (EC50) in data set [2] and in data set [3] was > 300 µM (not active) throughout.

`Cc1c2ccccc2nc2c(F)c(NC(C)C)c(F)c(F)c12`: the EC50 in data set [2] and in [3] was > 300 µM (not active) throughout.

In the case of `COc1ccc(Cc2nnc(NN)nc2O)cc1OC`, the 50% inhibitory concentration (IC50) on Nonstructural protein 1 is 15.5 µM (active).

Take `CN(C)S(=O)(=O)Oc1ccccc1C(=O)Nc1cccc(C(F)(F)F)c1`: the AC50 entry on Cytochrome P450 2C9 is reported as “inconclusive”.

On to `CC(=O)N1c2ccc(S(=O)(=O)NCCC(=O)NC3CCCC(C)C3C)cc2CC1C` (stereo unspecified), for which, in [7], the IC50 was 13.2 µM (active).

As for `CC1=C(/C=C/C(C)=C/C=C/C(C)=C\C=O)C(C)(C)CCC1`, the AC50 on Cytochrome P450 3A4 [6] was 31.6 µM (inconclusive).

Regarding `CCOC(=O)C1(CC2CCCCO2)CCN(Cc2nc(-c3cccs3)oc2C)CC1` (stereo unspecified), the EC50 (in data set [8]; in data set [9]; at Mu-type opioid receptor) was > 92.5 µM (inactive) in each case.

For the compound `CCc1ccc(NC(=O)Nc2ccc3c(c2)N(C)C(=O)CS3)cc1`, the EC50 in [8] is > 92.5 µM (inactive); in data set [9], 35.7 µM (inactive); at Mu-type opioid receptor, 36.7 µM (inactive).

With `Cc1ccc(CC(=O)NCC(c2ccco2)N(C)C)cc1C` (stereo unspecified), the EC50 (in data set [8]; in [9]; on Mu-type opioid receptor) was > 92.4 µM (inactive) in each case.

As to `O=C(N[C@H]1C/C=C\C[C@H](CC(=O)N(CCO)Cc2ccccc2)C(=O)N[C@H](Cc2c[nH]c3ccccc23)COC1=O)OCC1c2ccccc2-c2ccccc21`, the EC50 (in data set [8]; in [9]; on Mu-type opioid receptor) was > 92.5 µM (inactive) in each case.

As to `COCCNC(=O)C1CC(c2cccc(OC)c2)=NO1` (stereo unspecified), at Cytochrome P450 2C9, the AC50 result is “inconclusive”.

For `CCCN(C(=O)c1cn(CC)c2nc(C)ccc2c1=O)c1c(N)n(Cc2ccccc2)c(=O)[nH]c1=O`, in data set [7], the half-maximal inhibitory concentration (IC50) is 12.6 µM (active).

As to `CC(=O)N/N=C/c1cc([N+](=O)[O-])ccc1OCCOc1ccccc1`, the AC50 result at Cytochrome P450 2C9 and on Cytochrome P450 2C19 was “inconclusive” throughout.

`CN1CCN(CCC(=O)N/N=C/c2cc([N+](=O)[O-])ccc2O)CC1`: the IC50 at Nonstructural protein 1 is 17.3 µM (active).

Take `CCOC(=O)c1c(C)cc(O)c(C=O)c1O` [ETHYL HEMATOMMATE]: at Cytochrome P450 3A4 [6], the AC50 was 39.8 µM (inconclusive).

Turning to `C/C=C/c1ccc2c(c1)OCO2` [ISOSAFROLE], on Cytochrome P450 3A4 [6], the half-maximal activity concentration (AC50) was 25.1 µM (inconclusive).

On to `COC(=O)[C@@H]1[C@H]2C[C@H]3c4[nH]c5ccccc5c4CCN3C[C@@H]2CC[C@@H]1O` [YOHIMBINE], for which the EC50 in data set [2] was > 300 µM (not active); in data set [3] it was 103 µM (active).
